Data on 8 compounds can be found in US10286079B2, “Modified cytotoxins and their therapeutic use” (The Regents of the University of California, priority 2015, dated 2019).

One series addresses HSA (Homo sapiens, UniProt P02768). Nature of the series: in vitro. Conditions: HSA (human serum albumin), read-out: % bound to protein (converted); for fraction unbound at 1.5 μM: concentration 1.5 μM; for fraction unbound at 3 μM: concentration 3.0 μM. In kind it is in vitro ADME. The method, then: Using a dialysis-based protein binding assay according to the method described in Cohen, Plasma Protein-Binding Methods in Drug Discovery in OPTIMIZATION IN DRUG DISCOVERY: IN VITRO METHODS, Yan & Caldwell, eds., pp. 111-122 (Humana Press, Totowa, N.J., 2004), which is hereby incorporated by reference as though set forth herein in its entirety. The percentage of PTX-FA18 and the percentage of octadecanedioic acid (C18 Diacid) bound to the protein at different concentrations was measured.

The next series concerns HeLa cells. Put plainly: In vitro cytotoxicity, CellTiter Blue cell viability. The format is cell-based. Conditions: 3 days. The procedure: HeLa cells were obtained from ATCC and incubated at 37° C. at 5% CO2 using DMEM supplemented with 10% FBS, and 1× of sodium pyruvate, non-essential amino acids, L-glutamine and antibiotics.
Cytotoxicity of compounds was evaluated using the CellTiter Blue assay (Promega). HeLa cells were plated in 96-well plates, at a density of 3000 cells/well 1 day before treatment. Treatments were prepared as 1000× serial stock dilutions in DMSO, then diluted into media for 1×, 0.1% DMSO treatment solutions. Plating media was removed, then treatments were added to the wells. After 3 days, the media was removed and replaced with 100 uL complete DMEM without phenol red. Then 20 uL of CellTiter Blue reagent was added, and the plates incubated for two hours at 37° C. Fluorescence was measured at 590 nm with excitation at 560 nm. To determine viability, average background fluorescence was subtracted from average fluorescence readings of the experimental wells (three wells per treatment concentration). Viability was calculated as the average background-subtracted signal in a well compared to that of a negative control well (treatment with 0.1% DMSO/media).
Viabilities were fit in GraphPad Prism using a non-linear, dose-dependent inhibition curve. The IC50 numbers given in the table reflect the concentration at which the cell death is 50% of the maximum response.
(Alamar Blue is a resazurin reagent that responds to reducing activity.)

[1] abbreviates: Homo sapiens, 72 h, average of at least 3 replicates.

Chain of HSA (P02768 25-609): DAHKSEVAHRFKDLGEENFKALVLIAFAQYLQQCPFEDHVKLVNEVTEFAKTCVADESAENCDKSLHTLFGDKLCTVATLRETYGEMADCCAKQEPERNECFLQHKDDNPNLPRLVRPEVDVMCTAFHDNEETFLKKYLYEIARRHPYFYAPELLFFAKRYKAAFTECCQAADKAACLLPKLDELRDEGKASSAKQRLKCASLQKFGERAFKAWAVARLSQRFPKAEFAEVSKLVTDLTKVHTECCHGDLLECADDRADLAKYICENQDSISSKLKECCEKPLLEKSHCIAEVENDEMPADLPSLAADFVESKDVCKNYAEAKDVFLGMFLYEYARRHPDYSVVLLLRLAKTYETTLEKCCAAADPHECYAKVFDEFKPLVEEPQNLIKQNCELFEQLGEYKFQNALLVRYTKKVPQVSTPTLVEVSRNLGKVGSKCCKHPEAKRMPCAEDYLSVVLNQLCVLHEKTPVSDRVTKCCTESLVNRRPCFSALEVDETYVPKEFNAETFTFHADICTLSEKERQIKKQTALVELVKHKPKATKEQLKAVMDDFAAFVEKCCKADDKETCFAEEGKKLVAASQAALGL

On to `O=C(O)CCCCCCCCCCCCCCCCC(=O)O` [C18 Diacid, octadecanedioic acid], for which, at HSA, the fraction unbound at 1.5 μM is 0.009 and the fraction unbound at 3 μM is 0.002. The fraction unbound at 20 μM on HSA (concentration 20.0 μM) is 0.026.
A word on the IC50: it is the point on the concentration scale where inhibition reaches its midpoint. Low readings indicate higher potency, high ones lower potency. In turn, `CC(=O)O[C@H]1C(=O)[C@@]2(C)[C@H]([C@H](OC(=O)c3ccccc3)[C@]3(O)C[C@H](OC(=O)[C@H](OC(=O)CCCCCCCCCCCCCCCCCCC(=O)O)[C@@H](NC(=O)c4ccccc4)c4ccccc4)C(C)=C1C3(C)C)[C@]1(OC(C)=O)CO[C@@H]1C[C@@H]2O` [PTX-FA20, Paclitaxel-C20 Diacid Conjugate] registered an IC50 with HeLa cells (setting [1]) of 27.8 nM.
With `COC(=O)CCCCCCCCCCCCCCCCC(=O)NCCCCCC(=O)O[C@@H](C(=O)O[C@H]1C[C@@]2(O)[C@@H](OC(=O)c3ccccc3)[C@@H]3[C@]4(OC(C)=O)CO[C@@H]4C[C@H](O)[C@@]3(C)C(=O)[C@H](OC(C)=O)C(=C1C)C2(C)C)[C@@H](NC(=O)c1ccccc1)c1ccccc1` [PTX-FAE18-Aa, Paclitaxel-C18 Diacid Conjugate+Amino Acid Spacer], the IC50 with HeLa cells (Homo sapiens, 72 h, one experiment (*)) is 2330 nM.
`CC(=O)O[C@H]1C(=O)[C@@]2(C)[C@H]([C@H](OC(=O)c3ccccc3)[C@]3(O)C[C@H](OC(=O)[C@H](OC(=O)CCCCCCC/C=C/CCCCCCCC(=O)O)[C@@H](NC(=O)c4ccccc4)c4ccccc4)C(C)=C1C3(C)C)[C@]1(OC(C)=O)CO[C@@H]1C[C@@H]2O` [PTX-FAu18, Paclitaxel-uC18 Diacid Conjugate]: the IC50 with HeLa cells (setting [1]) worked out at 40.1 nM.
The compound `CC(=O)O[C@H]1C(=O)[C@@]2(C)[C@H]([C@H](OC(=O)c3ccccc3)[C@]3(O)C[C@H](OC(=O)[C@H](OC(=O)CCCCCCCCCCCCCCCCC(=O)O)[C@@H](NC(=O)c4ccccc4)c4ccccc4)C(C)=C1C3(C)C)[C@]1(OC(C)=O)CO[C@@H]1C[C@@H]2O` [PTX-FA18, Paclitaxel-C18 Diacid Conjugate] yielded an IC50 in the series with HeLa cells (setting [1]) of 64.4 nM. For the same compound, on HSA, the fraction unbound at 1.5 μM is 0.005 and the fraction unbound at 3 μM is 0.003.
Turning to “Methotrexate-C18 Diacid Conjugate [MTX-FA18]”, in the series with HeLa cells (average of at least 3 replicates), the IC50 was 3010 nM.
For `CC[C@@]1(OC(=O)CCCCCCCCCCCCCCCCC(=O)O)C(=O)OCc2c1cc1n(c2=O)Cc2cc3ccccc3nc2-1` [CPT-FA18, Camptothecin-C18 Diacid Conjugate], in the series on HeLa cells (setting [1]), the IC50 stood at 11000 nM.
Compound `CC(=O)O[C@H]1C(=O)[C@@]2(C)[C@H]([C@H](OC(=O)c3ccccc3)[C@]3(O)C[C@H](OC(=O)[C@H](OC(=O)CCCCCCCCCCCCCCC(=O)O)[C@@H](NC(=O)c4ccccc4)c4ccccc4)C(C)=C1C3(C)C)[C@]1(OC(C)=O)CO[C@@H]1C[C@@H]2O` [PTX-FA16, Paclitaxel-C16 Diacid Conjugate] showed an IC50 in the series on HeLa cells (setting [1]) of 137 nM.
